According to US20060058372A1, “N-Benzodioxolyl, n-benzodioxanyl and n-benzodioxepinyl arylcarboxamide derivatives and pharmaceutical compositions comprising them” (priority 2002, published 2006):

Legend:
[1] = tested on: apo B secretion in HepG2 cells; assay: Inhibition of apo B secretion in the HepG2 human cell line (sandwich ELISA); format: cell-based; conditions: 24 hours incubation, culture supernatant, ELISA specific for human apo B, read-out: IC50 (concentration that produces a 50% inhibition of apo B secretion in the HepG2 cells)
Procedure: Analysis of the secretion of apo B in the HepG2 human cell line:
The activity of a compound according to the invention can be evaluated by measuring the inhibition of apo B secretion in HepG2 cells.
The HepG2 cells (ECACC—No. 85011430) are used as model in the study of the in vitro hepatic secretion of lipoproteins (Dixon J. and Ginsberg H.-J. Lipid. Res.—1993, 34:167-179).
The HepG2 cells are cultured in Dulbecco's modified Eagle's medium comprising 10% foetal calf serum (DMEM and FBS-Gibco) in 96-well plates under an atmosphere of 5% carbon dioxide for 24 hours (about 70% confluence).
The test compounds are dissolved at a concentration of 2 or 10 mM in dimethyl sulfoxide (DMSO). Serial dilutions (1:3.16) are made in DMSO and are added (1:200—Robot Multimek Beckman) to the growth medium (200 microlitres) and then finally incubated for 24 hours in the various wells containing the HepG2 cells.
The 24-hour culture supernatant diluted to 1:5 (phosphate-buffered saline: PBS comprising 1% bovine serum albumin) is tested according to a sandwich-ELISA method specific for human apo B.
The results are expressed in terms of IC50, i.e. the concentration that produces a 50% inhibition of apo B secretion in the HepG2 cells.

[2] = molecular target: T1, microsomal triglyceride transfer protein (MTP) (Mesocricetus auratus, UniProt P55158); assay: Inhibition of MTP activity: transfer of [3H]-triolein from donor liposomes to biotinylated LDL (SPA); format: biochemical; conditions: MTP from golden hamster liver microsomes; incubation 18-24 hours at 37° C.; read-out: IC50 (concentration that allows a 50% inhibition of MTP)
T1 construct: The supernatant comprising the soluble MTP is dialysed; from tissue; host or cells: golden hamster liver microsomes, deoxycholate-solubilised
T1 sequence (P55158 19-895): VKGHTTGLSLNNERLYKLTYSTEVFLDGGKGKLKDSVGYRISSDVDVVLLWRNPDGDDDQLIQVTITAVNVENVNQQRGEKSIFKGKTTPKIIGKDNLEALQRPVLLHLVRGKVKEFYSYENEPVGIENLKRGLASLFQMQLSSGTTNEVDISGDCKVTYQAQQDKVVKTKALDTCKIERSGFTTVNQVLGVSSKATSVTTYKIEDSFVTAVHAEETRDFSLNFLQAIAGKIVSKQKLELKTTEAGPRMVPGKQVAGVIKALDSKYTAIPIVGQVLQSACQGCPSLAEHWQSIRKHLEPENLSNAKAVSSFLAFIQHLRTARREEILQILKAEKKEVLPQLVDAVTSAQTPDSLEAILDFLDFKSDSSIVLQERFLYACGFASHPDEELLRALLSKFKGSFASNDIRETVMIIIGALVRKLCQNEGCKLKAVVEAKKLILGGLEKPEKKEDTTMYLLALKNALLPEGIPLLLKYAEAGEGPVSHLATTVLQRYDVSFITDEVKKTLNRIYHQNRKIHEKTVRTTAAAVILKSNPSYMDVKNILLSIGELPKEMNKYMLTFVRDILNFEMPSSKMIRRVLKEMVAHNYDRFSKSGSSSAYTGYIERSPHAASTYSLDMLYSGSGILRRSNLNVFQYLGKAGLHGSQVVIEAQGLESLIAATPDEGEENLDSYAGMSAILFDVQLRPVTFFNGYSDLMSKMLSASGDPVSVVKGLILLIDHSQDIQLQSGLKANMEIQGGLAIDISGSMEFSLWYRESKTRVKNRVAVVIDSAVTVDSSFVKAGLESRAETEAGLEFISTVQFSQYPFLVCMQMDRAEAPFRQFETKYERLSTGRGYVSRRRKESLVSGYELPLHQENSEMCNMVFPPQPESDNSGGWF
T1 sequence (Q8R4U2 20-509 partner): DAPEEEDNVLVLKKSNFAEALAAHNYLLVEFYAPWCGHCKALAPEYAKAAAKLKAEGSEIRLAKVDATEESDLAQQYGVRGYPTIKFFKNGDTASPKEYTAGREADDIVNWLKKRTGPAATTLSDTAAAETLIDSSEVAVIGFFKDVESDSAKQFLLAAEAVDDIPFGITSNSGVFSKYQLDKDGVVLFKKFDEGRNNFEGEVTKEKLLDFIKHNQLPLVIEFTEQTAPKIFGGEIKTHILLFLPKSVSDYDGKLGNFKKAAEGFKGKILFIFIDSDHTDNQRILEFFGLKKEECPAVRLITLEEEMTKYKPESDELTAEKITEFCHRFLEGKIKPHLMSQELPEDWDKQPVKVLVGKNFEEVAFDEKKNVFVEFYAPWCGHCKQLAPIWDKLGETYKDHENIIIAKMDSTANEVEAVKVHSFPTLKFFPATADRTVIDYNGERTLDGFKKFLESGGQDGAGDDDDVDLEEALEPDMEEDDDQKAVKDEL
Procedure: Analysis of the Inhibition of MTP Activity
The inhibition of the activity of microsomal triglyceride transfer protein (MTP) was tested by using the following operating protocol.
The inhibition of MTP activity with a compound can be quantified by observing the inhibition of the transfer of a labelled triglyceride, from a donor particle to an acceptor particle, in the presence of MTP. The procedure for the preparation of MTP is based on the method by Wetterau and Zilversmit (Biochem. Biophys. Acta (1986) 875: 610). A few grams of golden hamster liver are taken and then rinsed several times in a 250 mM sucrose solution at 0° C. All the following steps proceed at +4° C. A homogenate at a concentration of 50% in 250 mM sucrose is prepared using a Teflon mill and then centrifuged for 10 minutes at 10 000×g at +4° C. The supernatant is then centrifuged at 105 000×g for 75 minutes at +4° C. The supernatant is discarded and the microsomal pellet is taken up in 3 ml (per g of starting liver) of Tris/HCl 150 mM pH 8.0. 1 ml aliquot fractions are stored at −80° C. until the time of use.
After thawing a fraction of microsomes (1 ml), 12 ml of refrigerated Tris/HCl 50 mM, KCl 50 mM, MgCl2 5 mM pH 7.4 buffers and 1.2 ml of deoxycholate (0.54% in water) are added. After incubation for 30 minutes at +4° C. with gentle agitation, the suspension is centrifuged at 105 000×g for 75 minutes. The supernatant comprising the soluble MTP is dialysed against Tris/HCl 150 mM, NaCl 40 mM, EDTA 1 mM, 0.02% sodium azide pH 7.4 buffer (5 times one litre over 2-3 days). The MTP is stored at +4° C., is stable for at least 30 days and is used in unmodified form in the test.
The donor particles (liposomes) are prepared from 208 μl of L-phosphatidylcholine at a concentration of 10 mg/ml in chloroform, and 480 μl of [3H]-triolein at a concentration of 0.5 mCi/ml in toluene. After stirring, the solution is evaporated under nitrogen, taken up in 6 ml of Tris/HCl 50 mM, KCl 50 mM, MgCl2 5 mM pH 7.4 buffer and incubated in an ultrasound bath for 30 minutes at room temperature. The liposomes are stored at +4° C. and sonicated again for 10 minutes before each use.
The acceptor particles are biotinylated low density lipoproteins (LDL-biot). These particles are supplied by the company Amersham.
The reaction mixture is prepared in untreated ½ well white plates (Corning Costar) by addition, in the following order, of: 5 μl of HEPES 50 mM, NaCl 150 mM, BSA 0.1% (w/v), 0.05% sodium azide (w/v), pH 7.4 buffer; 5 μl of liposomes; 5 μl of LDL-biot; 5 μl of test products in DMSO; 5 μl of MTP. After incubation for 18-24 hours at 37° C., the reaction is stopped by adding 100 μl of Amersham SPA (Scintillation Proximity Assay) beads coupled to streptavidin, and the radioactivity is counted using a Top Count (Packard) at least one hour later. The inhibition of the transfer of the triglycerides with a compound is reflected by a reduction in the transferred radioactivity.
The results are expressed in terms of the IC50, i.e. the concentration that allows a 50% inhibition of MTP.

SMILES | IC50 [1] [nM] | IC50 [2] [nM]
CCc1ccc(-c2ccccc2C(=O)Nc2ccc3c(c2)OC(F)(F)O3)cc1 [Example 32, 4′-ethylbiphenyl-2-carboxylic acid (2,2-difluorobenzo[1,3]dioxol-5-yl)-amide] | 97 | 
O=C(Nc1ccc2c(c1)OC(F)(F)O2)c1ccccc1-c1ccc(OC(F)(F)F)cc1 [Example 40, 5-(4′-trifluoromethoxybiphen-2-ylcarbonylamino)-2,2-difluorobenzo[1,3]-dioxole] |  | 220
CCc1ccc(-c2cccc(C)c2C(=O)Nc2ccc3c(c2)OC(F)(F)O3)cc1 [Example 42, 5-(4′-ethyl-3-methylbiphen-2-ylcarbonylamino)-2,2-difluorobenzo[1,3]-dioxole] |  | 270
CCNC(=O)OCCc1ccc(-c2ccccc2C(=O)Nc2ccc3c(c2)OC(F)(F)O3)cc1 [Example 48, 5-(4′-ethylaminocarbonyloxyethylbiphen-2-ylcarbonylamino)-2,2-difluorobenzo[1,3]dioxole] |  | 340
Cc1cccc(-c2ccc(OC(F)(F)F)cc2)c1C(=O)Nc1ccc2c(c1)OC(F)(F)O2 [Example 49, 5-(4′-trifluoromethoxy-3-methylbiphen-2-ylcarbonylamino)-2,2-difluorobenzo[1,3]dioxole] | 302 | 136
O=C(Nc1ccc2c(c1)OC(F)(F)O2)c1ccccc1-c1ccc(CCO)cc1 [Example 53, 4′-(2-hydroxyethyl)biphenyl-2-carboxylic acid (2,2-difluorobenzo[1,3]-dioxol-5-yl)amide] | 195 | 
CC(C)=Cc1ccc(-c2ccccc2C(=O)Nc2ccc3c(c2)OC(F)(F)O3)cc1 [Example 69, 4′-(2-methylpropenyl)biphenyl-2-carboxylic acid (2,2-difluorobenzo[1,3]-dioxol-5-yl)amide] | 288 | 
CC(C)c1ccc(-c2c(Cl)cccc2C(=O)Nc2ccc3c(c2)OC(F)(F)O3)cc1 [Example 90] | 30 | 44
O=C(Nc1ccc2c(c1)OC(F)(F)O2)c1cccc(Cl)c1-c1ccc(OC(F)(F)F)cc1 [Example 91] | 213 | 223
Cc1cccc(C(=O)Nc2ccc3c(c2)OC(F)(F)O3)c1-c1ccc(CCOCc2ccccc2)cc1 [Example 93, 4′-(2-benzyloxyethyl)-6-methylbiphenyl-2-carboxylic acid (2,2-difluorobenzo[1,3]dioxol-5-yl)amide] | 65 | 61
COc1cccc(C(=O)Nc2ccc3c(c2)OC(F)(F)O3)c1-c1ccc(OC(F)(F)F)cc1 [Example 94] | 66 | 193
CCNC(=O)OCCc1ccc(-c2c(C)cccc2C(=O)Nc2ccc3c(c2)OC(F)(F)O3)cc1 [Example 98] |  | 312

Second part, the compound after the results:

IC50 [1] [nM] | IC50 [2] [nM] | SMILES
65 |  | COCC1COc2ccc(NC(=O)c3ccccc3-c3ccc(C(C)C)cc3)cc2O1 (stereo not drawn) [Example 20, 4′-isopropylbiphenyl-2-carboxylic acid (3-methoxymethyl-2,3-dihydrobenzo[1,4]dioxin-6-yl)amide]
197 |  | CCNC(=O)OCC1COc2ccc(NC(=O)c3ccccc3-c3ccc(C(C)C)cc3)cc2O1 (stereo not drawn) [Example 21, 7-[(4′-isopropylbiphenyl-2-carbonyl)amino]-2,3-dihydrobenzo[1,4]dioxin-2-ylmethyl ethylcarbamate]
68 | 230 | CC(C)c1ccc(-c2ccccc2C(=O)Nc2ccc3c(c2)OC(F)(F)O3)cc1 [Example 33, (4′-isopropylbiphen-2-yl)-N-(2,2-difluorobenzo[1,3]dioxol-5-yl)carboxamide]
129 |  | CC(C)c1ccc(-c2ccccc2C(=O)Nc2ccc3c(c2)OCO3)cc1 [Example 41, 5-(4′-isopropylbiphen-2-ylcarbonylamino)benzo[1,3]dioxole]
72 |  | O=C(Nc1ccc2c(c1)OCO2)c1ccccc1-c1ccc(OC(F)(F)F)cc1 [Example 51, 4′-trifluoromethoxybiphenyl-2-carboxylic acid benzo[1,3]dioxol-5-ylamide]
219 |  | CC(C)Cc1ccc(-c2ccccc2C(=O)Nc2ccc3c(c2)OC(F)(F)O3)cc1 [Example 57, 4′-isobutylbiphenyl-2-carboxylic acid (2,2-difluorobenzo[1,3]dioxol-5-yl)-amide]
